Each structure is given as a SMILES string. pKi: −log10 of the molar value. A value given as a limit tells only on which side of the number the result lay.

This is an account of results in ChEMBL document CHEMBL4673399, “Sigma-1 and Sigma-2 Receptor Modulators as Potential Therapeutics for Alzheimer's Disease” (ACS Med Chem Lett, 2021).

In assay [1] the target is Sigma non-opioid intracellular receptor 1 (Homo sapiens, UniProt Q99720). The assay is described as follows: Binding affinity to sigma 1 receptor (unknown origin).
Sequence of Sigma non-opioid intracellular receptor 1 (Q99720 whole entry): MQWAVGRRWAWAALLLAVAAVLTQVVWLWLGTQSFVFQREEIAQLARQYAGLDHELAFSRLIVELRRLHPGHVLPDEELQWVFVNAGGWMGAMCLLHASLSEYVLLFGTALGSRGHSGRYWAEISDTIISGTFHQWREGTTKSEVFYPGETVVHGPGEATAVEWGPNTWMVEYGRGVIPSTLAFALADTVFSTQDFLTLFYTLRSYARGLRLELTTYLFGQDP
Assay [2] addresses Sigma intracellular receptor 2 (Homo sapiens, UniProt Q5BJF2). The assay is described as follows: Binding affinity to sigma 2 receptor (unknown origin).

Sequence of Sigma intracellular receptor 2 (Q5BJF2 whole entry): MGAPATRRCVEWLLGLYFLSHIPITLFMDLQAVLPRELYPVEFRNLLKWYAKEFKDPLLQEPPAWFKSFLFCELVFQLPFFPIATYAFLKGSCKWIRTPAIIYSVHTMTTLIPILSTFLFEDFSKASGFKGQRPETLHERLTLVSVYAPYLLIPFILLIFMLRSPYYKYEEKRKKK

As for `N#Cc1ccc(CCNC2CCc3nn4c(c3C2)C(=O)NCCC4)cc1` (stereo not given), the negative logarithm of the Ki (pKi) (as a rule, −log10 of the Ki, conventionally taken in molar units) in assay [1] is 6.00; in assay [2], above 6.00.

Regarding `CN1CCn2nc3c(c2C1=O)CC(NCc1ccc(F)cc1)CC3` (stereo not given), the pKi in assay [1] and in assay [2] was 6.00 throughout.

In the case of `O=C(c1nn(-c2ccccc2)c2c1CC(NCCc1ncc[nH]1)CC2)N1CCCCC1` (stereo not given), the pKi was 6.00 in assay [1] and above 6.00 in assay [2].

With `CCCn1nc(C(=O)Nc2cccc(OC)c2)c2c1CCC(NCCc1ccncc1)C2` (stereo not given), the negative logarithm of the Ki (pKi) in assay [1] was 6.00; in assay [2], above 6.00.

For `N#Cc1ccc(CCNC2CCc3c(c(C(=O)N4CCCCC4)nn3-c3ccccc3)C2)cc1` (stereo not given), the pKi in assay [1] and in assay [2] was above 6.00 each time.

As to `O=C(c1nn(-c2ccccc2)c2c1CC(N1CCc3ccccc3C1)CC2)N1CCCCC1` (stereo not given), the pKi in assay [1] and in assay [2] was 6.00 throughout.

Turning to `CCCn1nc(C(=O)N2CCCCC2)c2c1CCN(CCc1cccc(C(F)(F)F)c1)C2`, the pKi is 6.00 in assay [1] and above 6.00 in assay [2].

On to `O=C(c1nn(-c2ccccc2)c2c1CC(NCC1CCOCC1)CC2)N1CCCCC1` (stereo not given), for which the negative logarithm of the Ki (pKi) in assay [1] and in assay [2] was above 6.00 throughout.

As to `CCCn1nc(C(=O)N2CCCCC2)c2c1CCN(CCc1ccc(F)cc1)C2`, the results for the pKi in assay [1] and in assay [2] were above 6.00 and 6.00, respectively.

In the case of `O=C1NCCn2nc3c(c21)CC(NCCc1ccc2c(c1)OCO2)CC3` (stereo not given), the pKi in assay [1] and in assay [2] was 6.00 throughout.
